This is an account of results in ChEMBL document CHEMBL3751711, “Design and synthesis of novel Y-shaped barbituric acid derivatives as PPARγ activators” (Eur J Med Chem, 2016).

pIC50: −log10 of the molar value.

The first assay deals with T1, Peroxisome proliferator-activated receptor gamma (Homo sapiens, UniProt P37231).
T1 sequence (P37231 whole entry): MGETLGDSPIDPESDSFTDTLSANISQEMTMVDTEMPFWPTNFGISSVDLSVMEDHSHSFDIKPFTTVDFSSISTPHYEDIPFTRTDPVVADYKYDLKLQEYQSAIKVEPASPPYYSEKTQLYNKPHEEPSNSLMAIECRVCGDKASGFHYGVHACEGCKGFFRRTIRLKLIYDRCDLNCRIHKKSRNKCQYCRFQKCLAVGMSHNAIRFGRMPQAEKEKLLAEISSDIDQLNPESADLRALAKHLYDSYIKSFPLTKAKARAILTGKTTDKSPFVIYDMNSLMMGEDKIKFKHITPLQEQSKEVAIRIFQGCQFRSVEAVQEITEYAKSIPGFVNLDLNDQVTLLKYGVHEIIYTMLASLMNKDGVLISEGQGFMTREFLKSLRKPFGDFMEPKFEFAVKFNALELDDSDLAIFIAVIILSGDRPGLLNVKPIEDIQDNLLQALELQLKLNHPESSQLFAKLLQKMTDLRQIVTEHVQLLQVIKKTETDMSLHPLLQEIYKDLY
Briefly: Binding affinity to GST-tagged human PPAR-gamma receptor by FRET assay.
Settings: not given; call rule not given here
Regarding `O=C1NC(=O)C(=Cc2ccc(N(CCOCc3ccccc3)CCOC(c3ccccc3)(c3ccccc3)c3ccccc3)cc2)C(=O)N1`, the IC50 entry is recorded as “Not Active”. On to `O=C1NC(=O)C(=Cc2ccc(N(CCOc3ccccn3)CCOc3ccccn3)cc2)C(=O)N1`, for which the IC50 entry is “Not Active”. As for `CC(=O)OCCN(CCOC(C)=O)c1ccc(C=C2C(=O)NC(=O)NC2=O)cc1`, the IC50 result is “Not Active”. For the molecule `COc1ccc(COCCN(CCOCc2ccc(Br)cc2)c2ccc(C=C3C(=O)NC(=O)NC3=O)cc2)cc1`, the IC50 result was “Not Active”. Regarding `COc1ccc(COCCN(CCOC(C)=O)c2ccc(C=C3C(=O)NC(=O)NC3=O)cc2)cc1`, the IC50 entry is reported as “Not Active”. Consider `O=C1NC(=O)C(=Cc2ccc(N(CCOCc3ccc(F)cc3)CCOCc3ccc(F)cc3)cc2)C(=O)N1`, for which the IC50 entry is listed as “Not Active”.

Still in this assay, the particulars now being: read-out: IC50.
In the case of `O=C1NC(=O)C(=Cc2ccc(N(CCO)CCOC(c3ccccc3)(c3ccccc3)c3ccccc3)cc2)C(=O)N1`, the pIC50 (as a rule, −log10 of the IC50, conventionally taken in molar units) was 4.65. For `COc1ccc(COCCN(CCOCc2ccccc2)c2ccc(C=C3C(=O)NC(=O)NC3=O)cc2)cc1`, the pIC50 was 3.72. On the same count and under the same terms, then `N#Cc1ccc(OCCN(CCOc2ccc(C#N)cc2)c2ccc(C=C3C(=O)NC(=O)NC3=O)cc2)cc1`, with 5.19; and `O=C1NC(=O)C(=Cc2ccc(N(CCOc3ccc([N+](=O)[O-])cc3)CCOc3ccc([N+](=O)[O-])cc3)cc2)C(=O)N1`, with 5.00. For `COc1ccc(COCCN(CCOCc2ccc(OC)cc2)c2ccc(C=C3C(=O)NC(=O)NC3=O)cc2)cc1`, the pIC50 is 4.23. As for `COc1ccc(COCCN(CCOc2ccccn2)c2ccc(C=C3C(=O)NC(=O)NC3=O)cc2)cc1`, the pIC50 was 4.08.

As for `CC(=O)OCCN(CCOCc1ccccc1)c1ccc(C=C2C(=O)NC(=O)NC2=O)cc1`, the pIC50 is less than 3.70.

Turning to `O=C1NC(=O)C(=Cc2ccc(N(CCOCc3ccccc3)CCOCc3ccccc3)cc2)C(=O)N1`, the pIC50 is 4.11.

For the molecule `O=C1NC(=O)C(=Cc2ccc(OCc3ccccc3)cc2)C(=O)N1`, the pIC50 is 7.00.
